Measured values as given in a melting point compilation (Tetko et al.; mined from patent text by program, amines drawn as free bases though some values may be those of a salt).

Compound	melting point
CCC(C)S(=O)(=O)NN(CCC(=O)O)C(=O)c1ccc2nc(CCC3CCNCC3)[nH]c2c1 (stereo not given)	180 to 185 °C
Cc1cc(-c2nc3cc(F)cc(N4CCCC4)c3c(=O)[nH]2)cc(C)c1OCCN1CCCC1	207 °C
O=[N+]([O-])c1ccc(Nc2ccccn2)c(C(F)(F)F)c1	83 to 84 °C
O=C1N(C(c2ccccc2)c2ccccc2)c2ccccc2C12COc1cc(F)c(F)cc12 (stereo not given)	213 to 216 °C
O=c1c2cccc(Cl)c2nc2n1CCCO2	207 to 208 °C
CCCN(CCCCNc1ncc(Cc2ccncc2)c(=O)[nH]1)c1ccccn1	58 to 60 °C
BrCCOc1ccsc1	46 °C
CC(C)(C)OC(=O)N1CCCN(c2c(F)c(F)nc(F)c2F)CC1	55 to 59 °C
COc1cc(COc2cc(C#N)n(-c3ccccc3)n2)ccc1OCc1nc(-c2ccccc2)oc1C	120 to 121 °C
O=C(O)c1cccc2c1NCCC2C(=O)O (stereo not given)	215 to 216 °C
C=CC1CCC2c3ccc(OCC)c(F)c3OC2C1 (stereo not given)	141 °C
CCOC(=O)c1c(CS(=O)c2nc3ccccc3[nH]2)nc2cc(OC)c(OC)cc2c1-c1ccc(OC)c(OC)c1 (stereo not given)	160 to 161 °C
NC(=O)c1ccccc1N=C(NC(=O)c1ccccc1)NC(=O)c1ccccc1	276 to 278 °C
CCN1CCN(c2ccc(Nc3cc(-c4cnc5cc[nH]c5c4)cn4ccnc34)nc2)CC1	227 to 230 °C
FC(F)(F)c1nc(-c2ccc(OCCCn3ccnc3)cc2)no1	73 to 73.5 °C
CC(=Cc1c(Cl)cc(N(C)C)cc1Cl)[N+](=O)[O-]	105 to 110 °C
Clc1ccc(OCC2CCCC(OC(CBr)c3ccc(Cl)cc3Cl)O2)c(Cl)c1 (stereo not given)	104 to 105 °C
O=C1c2ccccc2COc2cc(Br)ccc21	110 to 112 °C
CN1CC(=O)C(C#N)=C1N	300 °C
Cc1cc(Cl)cc(C(=O)NCC2(C)CC2)c1NC(=O)c1cc(C(F)(F)F)nn1-c1ncccc1Cl	210 °C
CNc1nc2ccc(Cc3ccccn3)cc2s1	118 to 121 °C
CCCCc1nc2cnc3ccccc3c2n1CC1(O)CCOCC1	180 to 181 °C
Fc1cnc2[nH]ccc2c1	110 °C
CCN(CC)C(=O)C=Cc1cccc([N+](=O)[O-])c1C	74.3 °C
COCOc1cccc(ON=C(C)C)c1C#N	62 to 64 °C
CCOC(=O)C(CBr)=C1CC(=O)CCC1=N	170 to 175 °C
O=C(O)CC(C(=O)O)C(CSc1nc2ccccc2s1)C(=O)O (stereo not given)	188 to 190 °C
O=S1(=O)NC(C2CCCCC2)Nc2ccc(S(=O)(=O)N3CCCCC3)cc21 (stereo not given)	262 to 264 °C

Compound	melting point
Cc1cccc2ncc3nnnn3c12	166 to 168 °C
COc1cc2c(cc1O)C(=O)CCCC2	115 to 116 °C
CCC(=O)C1OC(O)C(O)C1OCc1ccccc1Cl (stereo not given)	130 to 133 °C
Clc1cnc(N2CCNCC2)c(Cl)n1	89 to 97 °C
Cn1c(=O)oc2cc3c(cc21)OCC31C(=O)N(C(c2ccccc2)c2ccccc2)c2ccccc21 (stereo not given)	228 to 229 °C
CN(C)c1ncc(NC(=O)c2cc3cc(C(F)(F)F)cnc3n2Cc2cccc(F)c2)cn1	236 to 238 °C
O=Cc1cc([N+](=O)[O-])cc(O)c1O	226 to 228 °C
O=CNc1ccccc1C(=O)Nc1nnn[nH]1	247 to 248 °C
CCC(CN1CCCC1)C(C#N)(c1ccccc1)c1ccccc1 (stereo not given)	90 °C
COc1cc2c(-c3cc4cc(Cl)cnc4[nH]3)cn(C)c2cc1OC	282 °C
O=S(CCCCCl)Cc1ccc(-c2ccccc2)cc1 (stereo not given)	116 to 117 °C
CC1(C)CC(=O)C(F)C(C)(C)C1 (stereo not given)	27 to 31 °C
Cc1onc(-c2c(F)cccc2Cl)c1C(=O)CBr	74 to 75 °C
COc1cc(C=CC#N)cc(OC)c1	126 °C
Cc1nc(SCc2ccc(C(=O)O)s2)sc1CC(=O)O	188 to 190 °C
CC1(CSc2ccccc2)COC2(CCCCCCCCCCC2)OO1 (stereo not given)	89 °C
Brc1c(OCc2ccc3ccccc3n2)ccc2ccccc12	130 to 132 °C
CCOC(=O)C1(c2ccc3c(c2)OCC(Cc2ccc(-c4ccccc4)cc2)C3=O)CCCC1 (stereo not given)	50 to 56 °C
CSc1nn(C(C)(C)C)c(=O)c(Cl)c1C1CCC(C(C)(C)C)CC1 (stereo not given)	96 °C
Cc1nn(-c2ccccc2)c2[nH]c(=O)c3ccccc3c12	302 to 304 °C
Cn1nc(SCSc2nn(C)c3ccc(Cl)cc3c2=O)c(=O)c2cc(Cl)ccc21	352 to 354 °C
CN1CCc2cccc3c4c(n(c23)CC1)CCC4	128 to 130 °C
CCOC(=O)/C(=N\OCC=C(Cl)Cl)c1csc(N)n1	135 to 136 °C
CC1(c2ccc(F)c(S(N)(=O)=O)c2)OCCO1	149 to 150 °C
CCCc1cn(C(C)(C)C(=O)N(C)C)nc1-c1ccccc1Cl	64 to 66 °C
COc1cc2c(=O)c(C(N)=O)c[nH]c2cc1F	> 300 °C
CCOP(=O)(O)Cc1nnc2c(=O)[nH]c3cc(C(F)(F)F)ccc3n12	276 to 280 °C

Second part, the compound after the results:

melting point	Compound
122 to 124 °C	O=C(OCc1ccccc1)C(CC(=O)N1Cc2cscc2C1)Cc1ccccc1 (stereo not given)
111 to 113 °C	COc1ccc(COC(=O)c2ccc(C(O)C(=O)O)cc2)cc1 (stereo not given)
72 to 73 °C	O=C(NCCCCC1N=C(c2ccccc2)OC1=O)OCc1ccccc1 (stereo not given)
129 to 130 °C	CCNC=C(C(=O)C=Cc1ccc(N(C)C)cc1)C(=O)OC
130 to 131 °C	CCOC(=O)[C@H](Cc1ccc(O)cc1)NC(=O)C1(NC(=O)[C@@H](SC(=O)C2CCCC2)C(C)C)CCCC1
> 280 °C	Cc1cccc(C(=O)c2[nH]c3cc(Cl)ccc3c2NC(N)=O)c1
90 to 92 °C	COC(=O)CCSc1ccc(C=C(C)c2ccc3c(c2)C(C)(C)CCC3(C)C)cc1
79 to 80.5 °C	COC(=O)c1ccccc1C=NC(C)(C(N)=O)C(C)C (stereo not given)
142 to 145 °C	CC(C)c1nc(CCO)n(Cc2ccc([N+](=O)[O-])cc2)c1Sc1cc(Cl)cc(Cl)c1
197 to 198 °C	CN(C)c1ccc(/C=C/c2ccc(F)cc2)cc1
74.5 to 76 °C	COc1ccc(C[C@H](C)NS(=O)(=O)c2ccccc2)cc1
170 to 172 °C	Cc1ccc(NS(=O)(=O)c2ccc([N+](=O)[O-])cc2)cc1
186 to 187 °C	COCCNC(=O)c1cc2c(nc(C)n2C)c2c1CCC1(Cc3ccccc3C1)N2
187 to 188 °C	Cc1c(C#N)c(-c2ccc(C#N)cc2)c(C)n1Cc1cnc(Cl)c(COC(=O)CCC(=O)O)c1
138 to 140 °C	CC(C)n1cc(-c2ccc(C=O)cc2)c2c(Cl)ncnc21
184 to 186 °C	Cc1cc(Cn2c(-c3ccccc3)nc(Cl)c2CO)ccc1OCc1ccccc1
120 to 121 °C	COc1cccc(Sc2ccnc(Nc3cccc(CN)c3)n2)c1
164 to 166 °C	COC(=O)c1c(C(=O)OC)c(-c2ccc(Cl)cc2)n2c1Cc1ccccc1C2
259 to 261 °C	CC(=O)Nc1nc2c(Oc3cc(-c4ccc(C(F)(F)F)cc4NC(C)=O)ncn3)cccc2s1
132 °C	CCC(Nc1ccc(Br)cc1)n1nnc2ccccc21 (stereo not given)
244 °C	COc1ccc(-c2nc(N)c(C(N)=O)nc2-c2ccc(=O)n(C(C)C)c2)cc1
104 °C	COc1ccc(N=C(C#Cc2ccccc2)N2CCN(Cc3ccccc3)CC2)cc1
292 to 293 °C	COc1ccc(Cc2nnc3c4ccccc4c(Nc4cccc(-c5nn[nH]n5)c4)nn23)cc1

melting point	Compound
234 °C	O=C(Nc1cccc(S(=O)(=O)NCC2CC2)c1)c1cnn2c(C(F)(F)F)cc(-c3ccc(C(F)(F)F)cc3)nc12
103 to 106 °C	COc1ccc(Cl)cc1C(=O)NCCc1ccc(CCCCCCCC(=O)O)cc1
210 to 211 °C	Nc1ncccc1-c1nc2cc(C3CCCC3)cnc2n1-c1ccc(CNC(=O)c2ccccc2)cc1
158 to 160 °C	O=C(NN=C1c2ccc(F)cc2CCC1c1ccccc1)Nc1ccc(C(F)(F)F)cc1 (stereo not given)
116 to 118 °C	CCc1nc2c(cnn2CC)c(NC2CCOCC2)c1CNC(=O)c1cc(C)cc(C(=O)NCc2cccc(Br)c2)c1
193 to 196 °C	OC(Cn1cncn1)(Cn1ncnc1C=Cc1ccc(Cl)cc1)c1ccc(Cl)cc1Cl (stereo not given)
109 to 110 °C	COC(=O)c1ccc(Oc2ccccc2C=O)c([N+](=O)[O-])c1
129 to 133 °C	COc1ccc(C(=Nc2c(Cl)cncc2Cl)NCc2ccccc2)cc1OC1CCCC1
48 to 50 °C	CS(=O)(=O)Nc1ccc(CCCOCCCCCCNCC(O)c2ccc(O)c(CO)c2)cc1 (stereo not given)
180 to 184 °C	CC(C)(C)OC(=O)NC[C@H]1CN(c2ccc3c(c2)CCCc2cnoc2-3)C(=O)O1
82 to 85 °C	CNC(=O)c1cc(Oc2ccc(NC(=O)Nc3ccc(Cl)c(C(F)(F)F)c3)cc2)ccn1
160 °C	COc1ccc(-c2nc3cc(F)ccc3s2)cc1OC(=O)c1ccccc1
194 °C	CCCCNC(=O)c1ccc2c(=O)nc(-c3ccccn3)sc2c1
138 °C	CC(=O)ON(C(N)=O)C(C)c1cc2ccccc2s1 (stereo not given)
217 °C	O=C(O)Cn1c(=O)n(Cc2ccc(Br)cc2F)c(=O)c2ccc(Br)cc21
232 to 235 °C	Cc1ccc(-c2nn(-c3cccc(C(=O)O)c3)c(N)c2C(N)=O)cc1
233 to 235 °C	Fc1ccc2[nH]c3c(c2c1)CN(CCc1ccncc1)CC3
230 to 232 °C	CC(=O)NCC(C)(C)c1ccc2nc(-c3ccc(C)cc3)[nH]c2c1
265 to 266 °C	CC1(C)CC(=O)C(C)(C)c2cc(/C=C/c3ccc(C(=O)O)cc3)c(Cn3cccn3)cc21
225 to 227 °C	Cn1c(=O)c2c(nc3n2CC(O)CN3Cc2ccccc2)n(C)c1=O (stereo not given)
215 to 217 °C	CCn1cc(C(=O)O)c(=O)cc1-c1ccc(OC)cc1
176 to 179 °C	COc1cc(/C=C/C=C/C(=O)NCCCN2CCC(c3c[nH]c4ccccc34)CC2)cc(OC)c1O
